B1: IL-23: a heterodimer (p19+p40), which shares the same subunit p40 with IL-12 (protein, UniProt Q9NPF7 20-189; P29460 23-328, looked up)
Interleukin-23 subunit alpha: RAVPGGSSPAWTQCQQLSQKLCTLAWSAHPLVGHMDLREEGDEETTNDVPHIQCGDGCDPQGLRDNSQFCLQRIHQGLIFYEKLLGSDIFTGEPSLLPDSPVGQLHASLLGLSQLLQPEGHHWETQQIPSLSPSQPWQRLLLRFKILRSLQAFVAVAARVFAHGAATLSP
Interleukin-12 subunit beta: IWELKKDVYVVELDWYPDAPGEMVVLTCDTPEEDGITWTLDQSSEVLGSGKTLTIQVKEFGDAGQYTCHKGGEVLSHSLLLLHKKEDGIWSTDILKDQKEPKNKTFLRCEAKNYSGRFTCWWLTTISTDLTFSVKSSRGSSDPQGVTCGAATLSAERVRGDNKEYEYSVECQEDSACPAAEESLPIEVMVDAVHKLKYENYTSSFFIRDIIKPDPPKNLQLKPLKNSRQVEVSWEYPDTWSTPHSYFSLTFCVQVQGKSKREKKDRVFTDKTSATVICRKNASISVRAQDRYYSSSWSEWASVPCS

System: lethally irradiated mice
Assay: Radioprotection assay: survival of mice after total body lethal irradiation
Type: in vivo, mice (C57BL/6J)
Conditions: cytokine given 1 hour post lethal dose radiation; for Survives: 4-5 mice per group
Protocol: Mice received recombinant murine IL-12 (100 ng/mouse (which is about 5 ug/kg on average), intravenous injection) before (24 hours) or after (1 hour) lethal dose radiation (1000 rad). Mice in control group received equal volume of PBS buffer. Survival rate were analyzed by Kaplan-Meier method and p value was calculated using Log Rank Test.
To determine the minimum effective radioprotective dose of IL-12, different dose of IL-112 were administered to lethally irradiated animals before (24 hours before) or post (within one hour) lethal dose ionizing radiation.
IL-12 was administrated to mice at different doses 24 hours before radiation to determine if there is a dose dependent relationship between the concentration of IL-12 administration and survival from lethal irradiation.
To further explore the relationship of IL-12 hematopoietic rescue effect as it may relate to the time of administration, IL-12 was administrated to lethally irradiated animals at different time before and after the radiation. The following time points were tested: −48, −36, −24, and −12 hours before radiation, or +1, +12, +24, and +36 hours post radiation.
A study was conducted to determine if the radioprotective effect of IL-12 administration is specific and INF- ? independent. […] Also, an assessment was made to determine if there was a synergistic effect between GM-CSF and IL-12.
Mice were provided with acid water for one week before the radioprotection assay. Cytokines, diluted in phosphate buffered saline (PBS), pH 7.4, were intravenously injected into mice before or after total body lethal irradiation (TBI) at the specified times. Control group mice were injected with PBS buffer. For TBI, mice were either exposed twice to ionizing irradiation ( ? -ray from Cesium 137) at 500 rad dose with a 3 hour interval, or one time at a dose of 1000 rad in a Gammacell 40 machine from Atomic Energy of Canada LTD (Kanafa, Ontario, Canada). The ? -ray exposure rate is 1 Gy/min. […] After irradiation, mice were given water containing antibiotics. For the survival curve, the Kaplan-Meier method was used. Each experiment was repeated three or more times.

| Molecule | Survival rate (%) | radioprotective effect | Survives |
| --- | --- | --- | --- |
| IL-18: cytokine that, like IL-12, can induce the release of interferon | 0 | no radioprotective effect | 0 |
| GM-CSF: a cytokine to stimulate G and M cell production | 0 | did not show any radioprotective effect | 0 |
| B1 | 0 | no radioprotective effect | 0 |
